{"source": "paper PMC9229919", "about": "“4-Aminoquinoline-Based Adamantanes as Potential Anticholinesterase Agents in Symptomatic Treatment of Alzheimer’s Disease” (Pharmaceutics, 2022)", "key": {"recombinant human AChE": {"target": "T1, recombinant human AChE (Homo sapiens, UniProt P22303)", "T1 construct": "gift of Dr Florian Nachon (Armed Forces Biomedical Research Institute, Brétigny-sur-Orge, France)", "T1 sequence (P22303 32-614)": "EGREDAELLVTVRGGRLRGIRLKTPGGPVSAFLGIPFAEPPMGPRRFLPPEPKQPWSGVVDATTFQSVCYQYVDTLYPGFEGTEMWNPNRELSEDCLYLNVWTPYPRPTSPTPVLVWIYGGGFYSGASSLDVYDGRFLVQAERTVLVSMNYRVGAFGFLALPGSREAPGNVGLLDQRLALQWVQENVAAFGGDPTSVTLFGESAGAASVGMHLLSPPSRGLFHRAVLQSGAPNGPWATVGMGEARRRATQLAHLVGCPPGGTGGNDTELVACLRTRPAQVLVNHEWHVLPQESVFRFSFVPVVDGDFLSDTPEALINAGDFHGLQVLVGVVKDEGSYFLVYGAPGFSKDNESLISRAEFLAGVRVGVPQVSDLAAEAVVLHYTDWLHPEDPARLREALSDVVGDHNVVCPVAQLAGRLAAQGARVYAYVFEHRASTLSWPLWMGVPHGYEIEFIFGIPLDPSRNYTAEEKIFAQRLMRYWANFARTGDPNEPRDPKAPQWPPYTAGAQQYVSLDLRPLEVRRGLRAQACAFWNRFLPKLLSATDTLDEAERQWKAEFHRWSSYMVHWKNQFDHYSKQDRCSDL", "assay": "biochemical", "assay_type": "biochemical", "procedure": "(§1) Acetylthiocholine (ATCh) and 5,5′-dithiobis(2-nitrobenzoic acid) (DTNB) were purchased from Sigma-Aldrich, St. Louis, MO, USA. ATCh was dissolved in water and DTNB in 0.1 M sodium phosphate buffer (pH 7.4). The 4-aminoquinilines were dissolved in DMSO and all further dilutions were made in water.\n(§2) The sources of AChE and BChE were purified human BChE and recombinant human AChE that was kindly provided by Dr Florian Nachon (Département de Toxicologie, Armed Forces Biomedical Research Institute, Brétigny-sur-Orge, France). […] The enzymes were diluted in sodium phosphate buffer 0.1 M (pH 7.4) containing 0.1% BSA.\n(§3) Enzyme activities were measured spectrophotometrically using a slightly modified Ellman method, as described earlier. […] At least three inhibitor concentrations for each substrate concentration were used in at least three experiments. The apparent inhibition constant (Ki,app) was calculated using the Hunter–Downs Equation and linear regression analysis:(1) Ki,app=vi·i/v0−vi=Ki+Ki/KS·s where the y-intercept determines the enzyme-inhibitor dissociation constant (Ki), while the x-intercept determines the enzyme-substrate dissociation constant, KS.\n(§4) The Hunter–Downs Equation was used under the assumption that the substrate, due to relatively low concentrations used in experiments, would bind only to the catalytic site of the enzymes, while the inhibitors would bind to both CAS and/or PAs. This allowed the type of inhibition to be determined from Ki,app vs. substrate concentration ([S]) dependency on Hunter–Downs plot.\n(§5) The final content of DMSO in the measurements was up to 0.2%. […] The measurements were performed at 25 °C on a Tecan Infinite M200Pro plate reader (Tecan Austria GmbH, Salzburg, Austria)."}, "purified human BChE": {"target": "T2, purified human BChE (Homo sapiens, UniProt P06276)", "T2 construct": "possibly also a gift of Dr Florian Nachon (the sentence is ambiguous)", "T2 sequence (P06276 29-602)": "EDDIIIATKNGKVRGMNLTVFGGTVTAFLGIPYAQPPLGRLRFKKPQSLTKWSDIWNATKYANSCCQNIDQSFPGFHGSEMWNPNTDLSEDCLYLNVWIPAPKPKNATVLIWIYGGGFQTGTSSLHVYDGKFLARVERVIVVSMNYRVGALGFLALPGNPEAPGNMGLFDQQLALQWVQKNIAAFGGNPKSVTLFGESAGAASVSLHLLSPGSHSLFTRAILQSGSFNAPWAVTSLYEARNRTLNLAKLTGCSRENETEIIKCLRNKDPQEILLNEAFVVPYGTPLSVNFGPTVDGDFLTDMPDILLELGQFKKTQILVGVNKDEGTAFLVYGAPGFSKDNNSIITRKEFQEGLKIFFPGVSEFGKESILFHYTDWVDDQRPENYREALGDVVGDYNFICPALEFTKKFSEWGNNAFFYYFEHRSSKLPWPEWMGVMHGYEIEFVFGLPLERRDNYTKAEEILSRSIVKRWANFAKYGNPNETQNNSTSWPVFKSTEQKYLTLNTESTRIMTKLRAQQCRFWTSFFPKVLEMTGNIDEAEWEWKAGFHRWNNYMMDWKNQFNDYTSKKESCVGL", "assay": "biochemical", "assay_type": "biochemical", "procedure": "as §1, §2, §3, §4, §5"}, "[1]": {"assay": "Ferric reducing antioxidant power (FRAP) assay", "settings": "mean ± standard error of three experiments", "procedure": ". All the chemicals were purchased from Sigma-Aldrich (St. Louis, MO, USA), except for tripyridyltriazine (TPTZ) (Fluka, Buchs, Switzerland) and FeCl3 (Kemika, Zagreb, Croatia). The FRAP assay was assessed according to Benzie and Strain [53] with slight procedure adjustments for 96-well microplates. The method is based on the reduction of the ferric-tripyridyltriazine (Fe^3+-TPTZ) complex to ferrous tripyridyltriazine (Fe^2+-TPTZ) by the action of electron-donating compounds at a low pH. Briefly, the FRAP reagent was prepared by mixing acetate buffer (300 mM, pH 3.6), a solution of 10 mM TPTZ in 40 mM HCl, and 20 mM FeCl3 at 10:1:1 (v/v/v). Then, 240 μL of FRAP reagent and 10 μL of sample solution were added to a 96-well plate and incubated at 37 °C for 60 min. The absorbance was measured at 593 nm using a microplate reader (Infinite M200PRO, Tecan Austria GmbH, Salzburg, Austria) against a blank. The reducing capacity was determined for 10 and 100 µM compound concentrations. […]. All measurements were performed in three independent experiments. FRAP values, denominating the reduction of ferric-tripyridyltriazine (Fe^3+-TPTZ) to ferrous tripyridyltriazine (Fe^2+-TPTZ) by 4-aminoquinolines were calculated based on a standard curve obtained using […]."}, "[2]": {"assay": "Reverse-phase thin-layer chromatographic lipophilicity (RF, RM0)", "assay_type": "physicochemical", "settings": "for RM0: intercept of RM = RM0 + bC; for b: slope of RM = RM0 + bC", "procedure": "Chromatographic determination of lipophilicity\nMerck, Darmstadt, Germany). The mobile phase contained organic modifier (methanol, acetone or dioxane), water and hydrochloric acid.\nMethanol was varied in the range […]\nwith an increment of 10%. […]\nbefore chromatogram development. The solvent developing distance was 4.5 cm. Detection of […]\nAll experiments were performed at ambient temperature (22±2 °C). Retention parameters were calculated as previously described. […]"}, "[3]": {"settings": "Acetone/Water/Hydrochloric acid (conc.)"}, "[4]": {"settings": "Dioxane/Water/Hydrochloric acid (conc.)"}, "[5]": {"settings": "Methanol/Water/Hydrochloric acid (conc.)"}}, "note": "Read-outs that look alike come from different tables or passages of the source.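 Throughout, for FRAP: expressed as µM Fe2+ equivalents from an FeSO4·7H2O standard curve.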"}
{"molecule": "Clc1ccc2c(NCCCN3CCN(CCCNCC45CC6CC(CC(C6)C4)C5)CC3)ccnc2c1", "note": "[Compound 22]", "values": [{"measurement": "IS", "setting": "recombinant human AChE; IS = Ki(BChE)/Ki(AChE), IS > 1 selective to AChE", "result": 4.8}, {"measurement": "Ki", "setting": "recombinant human AChE; log (Ki/µM AChE), read-out: Y Measured 1 log(ki)Ache (converted)", "result": 0.69, "unit": "µM"}, {"measurement": "Ki", "setting": "recombinant human AChE; ± standard error, 25 °C, ATCh substrate, read-out: Ki AChE", "result": "0.69 ± 0.02", "unit": "µM"}, {"measurement": "Ki", "setting": "purified human BChE; logarithm of Ki in µM, BChE, dependent variable of the QSAR model, read-out: Y Measured 2 log(ki)Bche, log (Ki/µM BChE) (converted)", "result": 3.3, "unit": "µM"}, {"measurement": "Ki", "setting": "purified human BChE; ± standard error, 25 °C, ATCh substrate, read-out: Ki BChE", "result": "3.3 ± 0.2", "unit": "µM"}, {"measurement": "FRAP", "setting": "[1]; 10 µM compound", "result": "11 ± 3", "unit": "µM"}, {"measurement": "FRAP", "setting": "[1]; 100 µM compound", "result": "34 ± 8", "unit": "µM"}, {"measurement": "RM0", "setting": "[2]; [3]", "result": 1.4989}, {"measurement": "b", "setting": "[2]; [3]", "result": 2.763}, {"measurement": "RM0", "setting": "[2]; [4]", "result": 0.5478}, {"measurement": "b", "setting": "[2]; [4]", "result": 1.493}, {"measurement": "RM0", "setting": "[2]; [5]", "result": 1.56}, {"measurement": "b", "setting": "[2]; [5]", "result": 2.199}, {"measurement": "RF, Methanol/Water/Hydrochloric acid (conc.), mobile phase I", "setting": "[2]; RP-18 silica, I = 90%MeOH/5%H2O/5%HCl", "result": 0.67}, {"measurement": "RF, Dioxane/Water/Hydrochloric acid (conc.), mobile phase II", "setting": "[2]; RP-18 silica, II = 80%Dioxane/15%H2O/5%HCl", "result": 0.78}, {"measurement": "RF, Methanol/Water/Hydrochloric acid (conc.), mobile phase II", "setting": "[2]; RP-18 silica, II = 85%MeOH/10%H2O/5%HCl", "result": 0.7}, {"measurement": "RF, Acetone/Water/Hydrochloric acid (conc.), mobile phase III", "setting": "[2]; RP-18 silica, III = 70%AC/25%H2O/5%HCl", "result": 0.71}, {"measurement": "RF, Dioxane/Water/Hydrochloric acid (conc.), mobile phase III", "setting": "[2]; RP-18 silica, III = 70%Dioxane/25%H2O/5%HCl", "result": 0.76}, {"measurement": "RF, Methanol/Water/Hydrochloric acid (conc.), mobile phase III", "setting": "[2]; RP-18 silica, III = 80%MeOH/15%H2O/5%HCl", "result": 0.6}, {"measurement": "RF, Dioxane/Water/Hydrochloric acid (conc.), mobile phase IV", "setting": "[2]; RP-18 silica, IV = 60%Dioxane/35%H2O/5%HCl", "result": 0.78}, {"measurement": "RF, Acetone/Water/Hydrochloric acid (conc.), mobile phase IV", "setting": "[2]; RP-18 silica, IV = 65%AC/30%H2O/5%HCl", "result": 0.68}, {"measurement": "RF, Methanol/Water/Hydrochloric acid (conc.), mobile phase IV", "setting": "[2]; RP-18 silica, IV = 75%MeOH/20%H2O/5%HCl", "result": 0.59}, {"measurement": "RF, Acetone/Water/Hydrochloric acid (conc.), mobile phase IX", "setting": "[2]; RP-18 silica, IX = 40%AC/55%H2O/5%HCl", "result": 0.28}, {"measurement": "RF, Methanol/Water/Hydrochloric acid (conc.), mobile phase IX", "setting": "[2]; RP-18 silica, IX = 50%MeOH/45%H2O/5%HCl", "result": 0.22}, {"measurement": "RF, Dioxane/Water/Hydrochloric acid (conc.), mobile phase V", "setting": "[2]; RP-18 silica, V = 50%Dioxane/45%H2O/5%HCl", "result": 0.6}, {"measurement": "RF, Acetone/Water/Hydrochloric acid (conc.), mobile phase V", "setting": "[2]; RP-18 silica, V = 60%AC/35%H2O/5%HCl", "result": 0.61}, {"measurement": "RF, Methanol/Water/Hydrochloric acid (conc.), mobile phase V", "setting": "[2]; RP-18 silica, V = 70%MeOH/25%H2O/5%HCl", "result": 0.5}, {"measurement": "RF, Dioxane/Water/Hydrochloric acid (conc.), mobile phase VI", "setting": "[2]; RP-18 silica, VI = 40%Dioxane/55%H2O/5%HCl", "result": 0.48}, {"measurement": "RF, Acetone/Water/Hydrochloric acid (conc.), mobile phase VI", "setting": "[2]; RP-18 silica, VI = 55%AC/40%H2O/5%HCl", "result": 0.51}, {"measurement": "RF, Methanol/Water/Hydrochloric acid (conc.), mobile phase VI", "setting": "[2]; RP-18 silica, VI = 65%MeOH/30%H2O/5%HCl", "result": 0.45}, {"measurement": "RF, Acetone/Water/Hydrochloric acid (conc.), mobile phase VII", "setting": "[2]; RP-18 silica, VII = 50%AC/45%H2O/5%HCl", "result": 0.43}, {"measurement": "RF, Methanol/Water/Hydrochloric acid (conc.), mobile phase VII", "setting": "[2]; RP-18 silica, VII = 60%MeOH/35%H2O/5%HCl", "result": 0.38}, {"measurement": "RF, Acetone/Water/Hydrochloric acid (conc.), mobile phase VIII", "setting": "[2]; RP-18 silica, VIII = 45%AC/50%H2O/5%HCl", "result": 0.36}, {"measurement": "RF, Methanol/Water/Hydrochloric acid (conc.), mobile phase VIII", "setting": "[2]; RP-18 silica, VIII = 55%MeOH/40%H2O/5%HCl", "result": 0.31}]}
